Patent US20200375987A1, “METALLO-BETA-LACTAMASE INHIBITORS AND METHODS OF USE THEREOF” (priority 2018, published 2020)

Key:
NDM-1 = NDM-1 (Klebsiella pneumoniae, UniProt C7C422); experiment: Enzyme activity: determination of IC50, fluorescence assay with CCF2-FA substrate (NDM-1); format: biochemical; conditions: 1 pM enzyme, 1.25 μM CCF2-FA, 2 hours at 25° C.; read-out: NDM1 IC50
Protocol: (§1) The Class B enzyme activities were measured in the presence of the test inhibitor in a fluorescence assay against a commercially available substrate consisting of a cephalosporin core linking 7-hydroxycoumarin to fluorescein (CCF2-FA). The enzyme (NDM-1, IMP-1 or VIM-1) and the substrate were diluted in 100 mM KH2PO4 buffer (pH 7) containing 0.005% Tween-20 and 10 μM ZnSO4. In the assay, the final concentration of enzyme was 1 pM, 2 pM and 30 pM for NDM-1, IMP-1 and VIM-1, respectively, and the final concentration of CCF2-FA was 1.25 μM. The test inhibitor was dissolved in dimethylsulfoxide and diluted 1:50 in the assay, resulting in a final concentration range of 20 μM to 0.00063 μM. In a 384-well microplate, the test inhibitor was incubated with the metallo-β-lactamase enzyme and the substrate for 2 hours at 25° C. Fluorescence at 460 nm following excitation at 405 nm was measured. The IC50 value was determined from semi-logarithmic plots of enzyme inhibition versus inhibitor concentration, with a curve generated using a 4-parameter fit.

IMP-1 = IMP-1 (Serratia marcescens, UniProt P52699); experiment: Enzyme activity: determination of IC50, fluorescence assay with CCF2-FA substrate (IMP-1); format: biochemical; conditions: 2 pM enzyme, 1.25 μM CCF2-FA, 2 hours at 25° C.; read-out: IMP1 IC50
IMP-1, sequence (P52699 19-246, looked up, species assumed): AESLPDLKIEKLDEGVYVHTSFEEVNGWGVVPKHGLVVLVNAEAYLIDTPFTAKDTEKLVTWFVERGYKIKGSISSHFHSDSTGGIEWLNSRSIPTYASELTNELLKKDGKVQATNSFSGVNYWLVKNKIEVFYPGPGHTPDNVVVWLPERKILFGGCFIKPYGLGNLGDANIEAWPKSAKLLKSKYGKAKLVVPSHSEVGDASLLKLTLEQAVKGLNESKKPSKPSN
Protocol: as §1

VIM-1 = VIM-1 (Pseudomonas aeruginosa, UniProt A0A0F7KYQ8); experiment: Enzyme activity: determination of IC50, fluorescence assay with CCF2-FA substrate (VIM-1); format: biochemical; conditions: 30 pM enzyme, 1.25 μM CCF2-FA, 2 hours at 25° C.; read-out: VIM1 IC50
Protocol: as §1

VIM-2 = VIM-2 (Escherichia coli, UniProt Q5U7L7); experiment: Enzyme activity: determination of IC50 (VIM-2); format: biochemical; conditions: read-out: VIM2 IC50
[1] = test system: Escherichia coli expressing NDM-1 (CLB30016); experiment: Antibiotic potentiation activity: synergistic concentration (MITC95) with imipenem; format: cell-based; conditions: imipenem 1 μg/mL; lowest concentration inhibiting 95% of growth; 35° C., 22-24 hours
Protocol: (§2) The bacterial strains tested included the clinical strains Escherichia coli expressing NDM-1 (CLB30005, CLB30016), Serratia marcescens expressing IMP-1 (CL5741), and Klebsiella pneumoniae expressing VIM-1 (IHMA599644). Inhibitor activity was measured in the presence and absence of imipenem in a 384-well microplate.
(§3) The clinical strains CLB30016, CL5741 and IHMA599644 were grown on trypticase soy agar containing 5% sheep's blood. The bacteria on agar plates were incubated at 35° C. with humidity overnight. The following day, individual colonies from each clinical strain were picked and resuspended in 5 mL saline to attain an OD600 of 0.14, 0.11, 0.15 and 0.13, for CLB30016, CL5741 and IHMA599644, respectively. These were further diluted 1:100 into 1.1× CAMHB and used to inoculate the test wells as described below.
(§4) Imipenem in 10 mM 3-(N-morpholino)propanesulfonic acid (MOPS, pH 7) was stored in single use aliquots at −80° C. […] On the day of the assay, 4 μl of antibiotic was added to 45 μl of bacteria followed by 1 μl of test compound and mixed by pipetting and with an orbital shaker. The concentration of antibiotic used in the assay was 1 μg/mL. Microplates were covered and incubated at 35° C. for 22 hours to 24 hours. At the end of the incubation, absorbance was determined using a spectrophotometer. The synergistic concentration of MBLI was determined by identifying the lowest concentration of test compound in the presence of a given concentration of antibiotic that was required to inhibit 95% of the growth of the bacteria. The results for Examples 1-209 are reported in Table 1, expressed as the concentration of compound that potentiated the action of antibiotic (imipenem) affecting 95% inhibition of bacterial growth (MITC95).

[2] = test system: Klebsiella pneumoniae expressing VIM-1 (IHMA599644); experiment: as above; format: cell-based; conditions: imipenem 1 μg/mL; lowest concentration inhibiting 95% of growth; 35° C., 22-24 hours
Protocol: as §2, §3, §4

[3] = test system: Serratia marcescens expressing IMP-1 (CL5741); experiment: as above; format: cell-based; conditions: imipenem 1 μg/mL; lowest concentration inhibiting 95% of growth; 35° C., 22-24 hours
Protocol: as §2, §3, §4

[4] = test system: P. aeruginosa MB9798 (efflux WT, IMP-1); experiment: Efflux: concentration of MBL inhibitor restoring susceptibility to imipenem (MITC95), efflux+ strain; format: cell-based, Pseudomonas aeruginosa; conditions: imipenem at 2 μg/mL in the presence of a class A, C, D serine β-lactamase inhibitor closely related to relebactam
Text: (§5) In order to assess the contribution of efflux to lack of whole cell inhibition of metallo-beta-lactamase inhibitors of formula I, tool strains were constructed. The strain background is Pseudomonas aeruginosa PAO1. A wild-type (MB5919) and an isogenic strain in which multiple efflux pumps have been disrupted genetically were used. The MBL IMP-1, obtained from a clinical isolate was introduced into the strain pair by the following process:
(§6) Plasmid DNA (encoding IMP-1) was extracted from CL 5673 (IMP-1, P. aeruginosa clinical strain) by standard techniques. The plasmid DNA was transformed into parental MB5919 (oprD+, efflux+, inducible AmpC) and MB5890 (oprD+, efflux−, inducible AmpC) isogenic strains by electroporation. These transformed strains were plated onto cation-adjusted Muller-Hinton agar plates containing ceftazidime at 32 μg/mL (MB5919) and 16 μg/mL (MB5890) to select for those cells in which the IMP-1-expressing plasmid was introduced successfully, resulting in resistance to ceftazidime. Agarose-gel electrophoresis of PCR product for IMP-1 from the successful transformants was used to compare to control and to the original strain from which the plasmid was obtained, confirming transfer of the IMP-1 gene (data not shown).
(§7) The strain set was then used as a pair to determine the effect of metallo-β-lactamase inhibitors of Formula Ion the MIC of imipenem and/or ceftazidime. A fixed concentration of antibiotic is included in standard microbroth MIC tests, usually at the CLSI breakpoint concentration. A fixed amount of a class A/C beta-lactamase inhibitor is also included to inhibit the resident Pseudomonas AmpC enzyme. A serial titration of the metallo-β-lactamase inhibitor was included and the concentration of metallo-β-lactamase inhibitor which restores susceptibility of the strain to the included antibiotic was recorded. That concentration of metallo-β-lactamase inhibitor was then compared between the two strains to determine the fold difference between the efflux+(MB9798) and efflux−(MB9799) strains, which indicates n the extent to which the MBLi is subject to efflux.

[5] = test system: P. aeruginosa MB9799 (efflux mutant, IMP-1); experiment: Efflux: concentration of MBL inhibitor restoring susceptibility to imipenem (MITC95), efflux− strain; format: cell-based, Pseudomonas aeruginosa; conditions: imipenem at 2 μg/mL in the presence of a class A, C, D serine β-lactamase inhibitor closely related to relebactam
Text: as §5, §6, §7

NDM-1, sequence (C7C422 29-270, looked up, species assumed): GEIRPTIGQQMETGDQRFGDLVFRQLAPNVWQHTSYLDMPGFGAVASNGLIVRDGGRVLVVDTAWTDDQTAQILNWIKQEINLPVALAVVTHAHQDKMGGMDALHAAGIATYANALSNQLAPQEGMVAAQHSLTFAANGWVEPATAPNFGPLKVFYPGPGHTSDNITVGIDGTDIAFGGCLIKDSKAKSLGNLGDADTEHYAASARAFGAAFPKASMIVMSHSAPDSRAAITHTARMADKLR

| Structure (SMILES) | IC50 (NDM-1) | IC50 (IMP-1) | IC50 (VIM-1) | IC50 (VIM-2) | CLB30016 E.coli MITC95 NDM [1] | IHMA599644 K.pneumoniae MITC95 uM VIM [2] | CL5741 S.marcescens MITC95 uM IMP [3] | MB9798 MITC95 P. aeruginosa Efflux WT [4] | MB9799 MITC95 P. aeruginosa Efflux Mutant [5] |
| --- | --- | --- | --- | --- | --- | --- | --- | --- | --- |
| NCC(CN)NS(=O)(=O)c1ccc(N2CCn3ccnc3C2)c(-c2nn[nH]n2)c1S(N)(=O)=O [Example 10, N1-(1,3-diaminopropan-2-yl)-4-(5,6-dihydroimidazo[1,2-a]pyrazin-7(8H)-yl)-3-(2H-tetrazol-5-yl)benzene-1,2-disulfonamide] | 1.17 nM | 2.96 nM | 0.25 nM | 0.99 nM | 0.10 µM | 1.56 µM | 0.39 µM | 3.13 µM | 1.56 µM |
| NCC(CN)NS(=O)(=O)c1ccc(N2CCCn3ccnc32)c(-c2nn[nH]n2)c1S(N)(=O)=O [Example 11, N1-(1,3-diaminopropan-2-yl)-4-(6,7-dihydroimidazo[1,2-a]pyrimidin-8(5H)-yl)-3-(2H-tetrazol-5-yl)benzene-1,2-disulfonamide] | 1.95 nM | 4.55 nM | 1.26 nM | 3.71 nM | 0.20 µM | 1.56 µM | 0.78 µM | 2.34 µM | 1.17 µM |
| NCCNS(=O)(=O)c1ccc(N2CCCn3ccnc32)c(-c2nn[nH]n2)c1S(N)(=O)=O [Example 12, N1-(2-aminoethyl)-4-(6,7-dihydroimidazo[1,2-a]pyrimidin-8(5H)-yl)-3-(2H-tetrazol-5-yl)benzene-1,2-disulfonamide] | 1.58 nM | 4.69 nM | 0.6 nM | 2.17 nM | 0.05 µM | 0.39 µM | 0.20 µM | 0.78 µM | 0.20 µM |
| NS(=O)(=O)c1c(S(=O)(=O)N[C@@H]2CCNC2)ccc(N2CCCn3ccnc32)c1-c1nnn[nH]1 [Example 13, (R)-4-(6,7-dihydroimidazo[1,2-a]pyrimidin-8(5H)-yl)-N1-(pyrrolidin-3-yl)-3-(1H-tetrazol-5-yl)benzene-1,2-disulfonamide] | 0.77 nM | 9.7 nM | 0.39 nM | 2.16 nM | 0.20 µM | 0.78 µM | 0.39 µM | 1.56 µM | 0.78 µM |
| C[C@H](N)CNS(=O)(=O)c1ccc(N2CCCn3ccnc32)c(-c2nn[nH]n2)c1S(N)(=O)=O [Example 14, (S)-N1-(2-aminopropyl)-4-(6,7-dihydroimidazo[1,2-a]pyrimidin-8(5H)-yl)-3-(2H-tetrazol-5-yl)benzene-1,2-disulfonamide] | 1.61 nM | 6.32 nM | 0.97 nM | 2.6 nM | 0.10 µM | 1.56 µM | 0.39 µM | 3.13 µM | 0.78 µM |
| NC[C@H](CO)NS(=O)(=O)c1ccc(N2CCCn3ccnc32)c(-c2nnn[nH]2)c1S(N)(=O)=O [Example 15, (R)-N1-(1-amino-3-hydroxypropan-2-yl)-4-(6,7-dihydroimidazo[1,2-a]pyrimidin-8(5H)-yl)-3-(1H-tetrazol-5-yl)benzene-1,2-disulfonamide] | 2.35 nM | 8.9 nM | 1 nM | 2.66 nM | 0.20 µM | 1.56 µM | 0.39 µM | 3.13 µM | 0.78 µM |
| NC[C@@H](O)CNS(=O)(=O)c1ccc(N2CCCn3ccnc32)c(-c2nnn[nH]2)c1S(N)(=O)=O [Example 16, (R)-N1-(3-amino-2-hydroxypropyl)-4-(6,7-dihydroimidazo[1,2-a]pyrimidin-8(5H)-yl)-3-(1H-tetrazol-5-yl)benzene-1,2-disulfonamide] | 1.2 nM | 5.93 nM | 0.38 nM | 1.01 nM | 0.10 µM | 1.56 µM | 0.39 µM | 3.13 µM | 0.78 µM |
| C[C@H](CN)NS(=O)(=O)c1ccc(N2CCCn3ccnc32)c(-c2nnn[nH]2)c1S(N)(=O)=O [Example 17, (R)-N1-(1-aminopropan-2-yl)-4-(6,7-dihydroimidazo[1,2-a]pyrimidin-8(5H)-yl)-3-(1H-tetrazol-5-yl)benzene-1,2-disulfonamide] | 0.36 nM | 2.17 nM | 0.22 nM | 1.11 nM | 0.78 µM | 1.56 µM | 0.78 µM | 1.56 µM | 0.78 µM |
| NC[C@H](O)CNS(=O)(=O)c1ccc(N2CCCn3ccnc32)c(-c2nnn[nH]2)c1S(N)(=O)=O [Example 18, (S)-N1-(3-amino-2-hydroxypropyl)-4-(6,7-dihydroimidazo[1,2-a]pyrimidin-8(5H)-yl)-3-(1H-tetrazol-5-yl)benzene-1,2-disulfonamide] | 1.87 nM | 8.07 nM | 0.76 nM | 1.99 nM | 0.10 µM | 1.56 µM | 0.39 µM | 3.13 µM | 0.78 µM |
